Here are results for 2 molecules from PMC10511816 (The Journal of Biological Chemistry, 2023).

For data set [1] the following is noted: cited from earlier work.
The target of data set [2] is XO (Bos taurus, UniProt P80457). Put plainly: oxidation of hypoxanthine to xanthine and uric acid by XO, HPLC time course. In kind it is biochemical, bovine. The arrangement: Bovine milk was obtained from the animal farm of the Nippon Veterinary and Life Science University; from tissue; host or cells: bovine milk. Here is the method: The rate of NAD^+ conversion to NADH was measured at A340 nm.
(§1) Bovine milk was obtained from the animal farm of the Nippon Veterinary and Life Science University. […] The dehydrogenase form of the enzyme (XDH) was obtained by reacting XO immediately upon purification with 5 mM DTT at pH 8.5, 25 °C for 1 h. XO and XDH assays were carried out at 25 °C under aerobic conditions. […] A total of 500 μM β-NAD^+ was added to the same reaction solution for XDH activity. Physiological conditions such as pH 7.4 (0.1 M potassium phosphate buffer (KPB), 0.2 mM EDTA) and the addition of 50 μM β-NADH were also used. The activity was measured by following 295 nm and 340 nm on a UV-1800 or UV1900i spectrophotometer. […] In addition, the enzyme reaction solution was quenched with perchloric acid and neutralized with K2CO3, with products analyzed using HPLC as described below. Spectrophotometric data were analyzed using UV-Probe software Ver. 2.70 or LabSolutions UV-Vis Ver. […] Kinetic parameters were determined from nonlinear curve fits of raw data using GraphPad Prism 9 software.
(§2) Purine concentrations were measured using a Shimadzu HPLC system consisting of the CBM-20A controller, LC-20AD pump, SIL-20AC autosampler (set at 4 °C), CTO-20A column oven (set at 40 °C), and SPD-M20A diode array detector. Peak analysis was performed using LC solution software. A SUPELCOSIL LC-18-T column (25 cm × 4.6 mm id 5 μm particle size) was used with the SUPELCOSIL LC-18-T Supelguard guard column separation of purines, using a flow rate was 0.8 ml/min and 10 or 20 μl samples. The mobile phase used was A: 0.1 M KPB and 4 mM tetrabutylammonium hydrogen sulfate (pH 5.5), B: 70% buffer A and 30% methanol (v/v). Gradient conditions were 0 min (0% B), 2 min (0% B), 4 min (30% B), 12 min (60% B), 15 min (100% B), 19 min (100% B), 20 min (0% B), and 30 min (0% B). Detection wavelengths were 254 nm, 268 nm, and 295 nm. The data were analyzed using LabSolutions Ver. 5.97 SP1. All purines were identified by retention time and quantified using an external standard.

The target of data set [3] is T1, XOR (Bos taurus, UniProt P80457).
T1 construct: Bovine milk was obtained from the animal farm of the Nippon Veterinary and Life Science University; from tissue; host or cells: bovine milk
Put plainly: XOR kinetics with phenazine methosulfate / cytochrome c reduction (550 nm). It counts as biochemical, bovine. The settings on record: for Types of inhibition / Ki: XOR; for Types of inhibition: PMS. Here is the method: Therefore, phenazine methosulfate was used to induce direct, rapid reoxidation of the molybdenum center ([22], [23]).
as §1, with “used.” for “used. The activity was measured by following 295 nm and 340 nm on a UV-1800 or UV1900i spectrophotometer.”
(§3) A295 indicates the concentration of uric acid yielded by XOR. […] A295 indicates the concentration of uric acid yielded by XOR. Figure S2. The XOR inhibition mode of oxypurinol.A–G, Lineweaver-Burk plots were generated to visualize data and estimated the inhibition patterns. Data are representative of least two independent experiments. […] Figure S3. […] B, mode of inhibition of oxypurinol on the inosine degradation reaction of PNP. […] 0, 250, 375, 500, 750 and 1000 μM of oxypurinol were used. […] The rate of NAD^+ conversion to NADH was measured at A340 nm.

Data set [4] deals with mouse model of hyperuricemia. The experiment in a line: mouse model of hyperuricemia (potassium oxonate), plasma purines by HPLC. The settings on record: for plasma hypoxanthine levels vs control / plasma xanthine levels vs control: 1 h. It counts as in vivo. Here is the method:
To compare the inhibitory effect of allopurinol and oxypurinol on uric acid production, mice were treated with oxonate to inhibit uricase and induce hyperuricemia.
Figure 2 Comparison of the effects of allopurinol and oxypurinol in a model of hyperuricemia. […] Statistical analysis was performed using one-way ANOVA and Turkey’s multiple comparison test. ∗p < 0.05, ∗∗p < 0.01, ∗∗∗∗p < 0.0001.
Six-week-old specific-pathogen free-grade male Institute of Cancer Research mice were purchased from Japan SLC. All animal experiments were performed according to the protocol approved by the Animal Care and Ethics Committee of Tokyo University of Pharmacy and Life Sciences (Permit No. P21-80). Mice were housed under conditions of 22 to 24 °C, 40 to 60% humidity, and a 12-h light/12-h dark cycle. Food and water were administered ad libitum.
Oxypurinol or allopurinol was suspended in 0.5% carboxymethyl cellulose and administered intraperitoneally at 3 mg/kg or 10 mg/kg (n = 11). The control group received 0.5% carboxymethyl cellulose (n = 5). Immediately after intraperitoneal administration, potassium oxonate was injected subcutaneously at 300 mg/kg. One hour after administration, mice were sacrificed by cervical dislocation, and blood was collected with heparin. […] Statistical analysis was performed using GraphPad Prism 9 software (www.graphpad.com).
as §2

For data set [5], the target named is XDH (Bos taurus, UniProt P80457). Put plainly: initial-velocity steady-state kinetics of XDH, NAD+ as electron acceptor. The arrangement: Bovine milk was obtained from the animal farm of the Nippon Veterinary and Life Science University; from tissue; host or cells: bovine milk. In kind it is biochemical, bovine. The settings on record: for Types of inhibition / Ki: XDH; for Types of inhibition: NAD+. Here is the method:
as §1, §3

The mark [6] stands for this setting: as substrate of XOR, electron acceptor PMS, mean ± S.E.
Setting [7] is: 3 mg/kg intraperitoneal, 1 h after administration, oxonate-treated mice.
The mark [8] stands for this setting: one hour after 3 mg/kg allopurinol intraperitoneal.
The mark [9] stands for this setting: as substrate of XDH, electron acceptor NAD+, 340 nm, mean ± S.E.

Chain of XDH (P80457 whole entry): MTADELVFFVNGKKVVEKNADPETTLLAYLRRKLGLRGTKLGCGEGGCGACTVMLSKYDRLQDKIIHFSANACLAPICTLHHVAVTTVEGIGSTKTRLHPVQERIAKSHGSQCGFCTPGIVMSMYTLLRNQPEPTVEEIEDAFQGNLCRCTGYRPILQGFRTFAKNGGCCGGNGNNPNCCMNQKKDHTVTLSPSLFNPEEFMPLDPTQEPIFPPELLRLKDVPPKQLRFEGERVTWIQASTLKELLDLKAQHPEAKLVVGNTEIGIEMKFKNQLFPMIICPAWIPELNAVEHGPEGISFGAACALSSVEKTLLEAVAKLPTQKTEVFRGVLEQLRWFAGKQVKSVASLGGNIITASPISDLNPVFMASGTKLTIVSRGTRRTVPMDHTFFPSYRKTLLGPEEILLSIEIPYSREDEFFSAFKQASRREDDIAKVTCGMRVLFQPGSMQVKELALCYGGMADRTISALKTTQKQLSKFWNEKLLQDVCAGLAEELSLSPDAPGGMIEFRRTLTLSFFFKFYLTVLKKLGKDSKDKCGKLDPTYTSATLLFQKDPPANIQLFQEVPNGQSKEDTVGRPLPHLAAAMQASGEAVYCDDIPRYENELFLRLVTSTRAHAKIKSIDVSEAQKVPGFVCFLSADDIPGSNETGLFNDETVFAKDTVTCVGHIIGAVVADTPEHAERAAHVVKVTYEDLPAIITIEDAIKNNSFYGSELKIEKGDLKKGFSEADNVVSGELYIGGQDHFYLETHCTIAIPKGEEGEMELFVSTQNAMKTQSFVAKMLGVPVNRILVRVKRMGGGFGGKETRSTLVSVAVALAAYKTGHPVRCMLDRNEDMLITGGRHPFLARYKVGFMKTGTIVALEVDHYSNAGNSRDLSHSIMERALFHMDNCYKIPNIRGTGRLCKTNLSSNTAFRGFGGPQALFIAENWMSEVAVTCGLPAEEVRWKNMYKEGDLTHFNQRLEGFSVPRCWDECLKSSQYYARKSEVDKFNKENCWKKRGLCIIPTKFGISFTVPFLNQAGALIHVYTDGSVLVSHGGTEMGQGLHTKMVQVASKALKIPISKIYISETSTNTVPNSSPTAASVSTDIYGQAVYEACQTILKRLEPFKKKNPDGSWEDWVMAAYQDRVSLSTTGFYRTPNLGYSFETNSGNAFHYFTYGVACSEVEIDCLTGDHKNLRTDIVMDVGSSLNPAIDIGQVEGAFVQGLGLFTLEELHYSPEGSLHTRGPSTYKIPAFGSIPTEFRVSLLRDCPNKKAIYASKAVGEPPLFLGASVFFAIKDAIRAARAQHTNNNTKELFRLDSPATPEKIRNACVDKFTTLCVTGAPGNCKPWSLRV
T1 sequence (P80457 whole entry): as above
Chain of XO (P80457 whole entry): as above

As usually defined, the Km is the concentration of substrate that gives half-maximal velocity. As a reminder, the kcat is the number of substrate molecules converted per active site and unit of time at saturation. With `Oc1ncnc2[nH]ncc12` [Allopurinol], the serum oxypurinol concentrations result in data set [1] (patients receiving 300 mg allopurinol daily for more than 2 weeks) is “greater than 100 μM”. Also, the “time to inhibit conversion of hypoxanthine to xanthine” value in data set [2] (10 μM inhibitor, 2.5 μM hypoxanthine, XO, pH 7.4, 25 °C) was “about 5 min”. For the same molecule, the “inhibition of conversion of hypoxanthine to xanthine” value in data set [2] (50 μM inhibitor, 2.5 μM hypoxanthine, XO) was “inhibition was immediate”. In addition, in data set [3] (setting [6]), the Km was 3.59 ± 0.45 µM and the kcat worked out at 26.17 ± 1.96 s⁻¹. Also, in data set [4] (3 mg/kg intraperitoneal), the “plasma hypoxanthine levels vs control” value was “significantly increased plasma hypoxanthine levels” and the “plasma xanthine levels vs control” value is “xanthine levels were largely unaffected”. Also, the “plasma uric acid levels compared to the control group” value in data set [4] (setting [7]) is “significantly decreased plasma uric acid levels”. In addition, in data set [4] (setting [8]), the allopurinol in plasma result is listed as “little allopurinol was detected in the plasma” and the oxypurinol in plasma result is “a small amount of oxypurinol was also observed”. In data set [5] (setting [9]), the Michaelis-Menten constant (Km) was determined as 4.23 ± 0.52 µM and the kcat is 1.83 ± 0.92 s⁻¹.

The Ki is the dissociation constant of the complex between target and ligand, obtained from inhibition or displacement. Read a high Ki as lower affinity. For the molecule `O=c1[nH]c(=O)c2c[nH]nc2[nH]1` [Oxypurinol], the “oxypurinol concentrations necessary to achieve target serum uric acid levels” value in data set [1] (ref Stamp et al. 5, 16) is over 100 µmol/L. Besides, the “accumulation of xanthine from hypoxanthine” value in data set [2] (up to 500 μM inhibitor, XO and XDH) was “accumulation of xanthine was still significant even at 500 μM oxypurinol”. Also, the Types of inhibition result in data set [3] (substrate hypoxanthine) was “Competitive”; in data set [3] (substrate xanthine), “Competitive”; in data set [5] (substrate hypoxanthine, 340 nm), “Competitive”; in data set [5] (substrate xanthine, 295 nm), “Competitive”. Moreover, the Ki stood at 1.29 ± 0.14 µM in data set [3] (substrate hypoxanthine, electron acceptor PMS, mean ± S.E.); 1.65 ± 0.24 µM in data set [3] (substrate xanthine, electron acceptor PMS, mean ± S.E.); 3.15 ± 0.22 µM in data set [5] (substrate hypoxanthine, electron acceptor NAD+, 340 nm, mean ± S.E.); 4.6 ± 0.87 µM in data set [5] (substrate xanthine, electron acceptor NAD+, 295 nm, mean ± S.E.). Also, the “plasma hypoxanthine levels vs control” value in data set [4] (3 mg/kg intraperitoneal) and in data set [4] (10 mg/kg intraperitoneal) was “neither hypoxanthine nor xanthine concentrations were significantly different from the control group” throughout. Moreover, the “plasma xanthine levels vs control” value in data set [4] (3 mg/kg intraperitoneal) and in data set [4] (10 mg/kg intraperitoneal) was “neither hypoxanthine nor xanthine concentrations were significantly different from the control group” each time. Also, the “plasma uric acid levels compared to the control group” value in data set [4] (setting [7]) is reported as “did not significantly reduce plasma uric acid levels”. Further, the “plasma uric acid levels” value in data set [4] (10 mg/kg intraperitoneal, 1 h after administration, oxonate-treated mice) is given as “reduce plasma uric acid to that seen with 3 mg/kg allopurinol”.
